# Test results reported in ChEMBL document CHEMBL1201862, “PubChem BioAssay data set” (2004).
#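 Cells were grown in 96-well plates and exposed to each compound for 48 hours at five concentrations; endpoints were interpolated linearly between bracketing concentrations, or set to the highest concentration if not reached. The concentration for 50% growth inhibition is given as GI50.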 Active and inactive are the calls of the source. Rule as the data show it: active = GI50 up to about 1.1 µM and inactive = higher.
# Assays:
# Assay in all cases: NCI anticancer screen, dose series, 48 h
# A498 = test system: A498
# ACHN = test system: ACHN
# EKVX = test system: EKVX
# HCC 2998 = test system: HCC 2998
# HL-60 = test system: HL-60
# IGROV-1 = test system: IGROV-1
# M14 = test system: M14
# Malme-3M = test system: Malme-3M
# NCI-H23 = test system: NCI-H23
# RPMI-8226 = test system: RPMI-8226
# SK-MEL-28 = test system: SK-MEL-28
# SNB-75 = test system: SNB-75
# TK-10 = test system: TK-10
# U-251 = test system: U-251
# UACC-257 = test system: UACC-257
# UO-31 = test system: UO-31
# MDA-MB-231 = test system: MDA-MB-231
# MDA-N = test system: MDA-N
# T47D = test system: T47D
SMILES,GI50 (A498),GI50 (ACHN),GI50 (EKVX),GI50 (HCC 2998),GI50 (HL-60),GI50 (IGROV-1),GI50 (M14),GI50 (Malme-3M),GI50 (NCI-H23),GI50 (RPMI-8226),GI50 (SK-MEL-28),GI50 (SNB-75),GI50 (TK-10),GI50 (U-251),GI50 (UACC-257),GI50 (UO-31),GI50 (MDA-MB-231),GI50 (MDA-N),GI50 (T47D)
Cc1cccc2[s+]snc12,> 100 µM (inactive),63.5 µM (inactive),> 51.3 µM (inactive),> 100 µM (inactive),18 µM (inactive),> 100 µM (inactive),> 68.5 µM (inactive),30.5 µM (inactive),> 96.6 µM (inactive),> 42.4 µM (inactive),> 47.5 µM (inactive),> 100 µM (inactive),> 100 µM (inactive),> 100 µM (inactive),> 76.9 µM (inactive),> 100 µM (inactive),,,
O=C(/C=C/c1ccccc1Cl)c1ccc(Cl)c(Cl)c1,15.9 µM (inactive),15.3 µM (inactive),14.5 µM (inactive),15.5 µM (inactive),25.8 µM (inactive),12.4 µM (inactive),17.5 µM (inactive),22.8 µM (inactive),20 µM (inactive),37.7 µM (inactive),20.2 µM (inactive),13 µM (inactive),18.5 µM (inactive),17.3 µM (inactive),19.7 µM (inactive),17.1 µM (inactive),,,
O=C(CC(C(=O)c1ccco1)c1ccco1)c1ccco1 (stereo unspecified),> 100 µM (inactive),> 100 µM (inactive),> 100 µM (inactive),> 100 µM (inactive),> 100 µM (inactive),> 100 µM (inactive),> 100 µM (inactive),,> 100 µM (inactive),> 100 µM (inactive),> 100 µM (inactive),> 100 µM (inactive),> 100 µM (inactive),> 100 µM (inactive),> 100 µM (inactive),33.1 µM (inactive),78.9 µM (inactive),> 100 µM (inactive),> 100 µM (inactive)
CC1=C2C(=O)c3ccccc3C(=O)[C@H]2C[C@@H](N2CCCCCC2=O)O1,> 100 µM (inactive),23.4 µM (inactive),23.1 µM (inactive),16.7 µM (inactive),19 µM (inactive),16.4 µM (inactive),15.4 µM (inactive),12.9 µM (inactive),14.9 µM (inactive),14.6 µM (inactive),18.7 µM (inactive),23.4 µM (inactive),23 µM (inactive),23.8 µM (inactive),17.4 µM (inactive),17 µM (inactive),22.5 µM (inactive),16 µM (inactive),20.8 µM (inactive)
CC1(C)CC(=O)C(C(=O)Nc2cccs2)=C(O)C1,28.8 µM (inactive),32.7 µM (inactive),42 µM (inactive),48.5 µM (inactive),24.1 µM (inactive),32.9 µM (inactive),36.7 µM (inactive),32.1 µM (inactive),30 µM (inactive),31 µM (inactive),> 100 µM (inactive),25.2 µM (inactive),64.6 µM (inactive),31.8 µM (inactive),47.9 µM (inactive),28.8 µM (inactive),,,
CC(=O)O/N=C1\C=Cc2c(no[n+]2[O-])C1=O,16.4 µM (inactive),17.1 µM (inactive),17.3 µM (inactive),22.1 µM (inactive),,16.4 µM (inactive),18.6 µM (inactive),14.7 µM (inactive),20 µM (inactive),30 µM (inactive),21.6 µM (inactive),19.8 µM (inactive),15.6 µM (inactive),,18.2 µM (inactive),15.1 µM (inactive),18.9 µM (inactive),17.6 µM (inactive),25.6 µM (inactive)
Nn1c(-c2cccc(Cl)c2)nc2ccccc2c1=O,> 100 µM (inactive),> 100 µM (inactive),> 100 µM (inactive),> 100 µM (inactive),> 100 µM (inactive),> 100 µM (inactive),> 100 µM (inactive),> 100 µM (inactive),> 100 µM (inactive),> 100 µM (inactive),> 100 µM (inactive),> 100 µM (inactive),> 100 µM (inactive),> 100 µM (inactive),> 100 µM (inactive),> 100 µM (inactive),,,
CC(=O)CC(=O)OC1CC(C)CCC1C(C)C (stereo unspecified),> 100 µM (inactive),> 100 µM (inactive),> 100 µM (inactive),41.4 µM (inactive),18.8 µM (inactive),76.6 µM (inactive),> 100 µM (inactive),40.7 µM (inactive),96.8 µM (inactive),15 µM (inactive),63.4 µM (inactive),73.3 µM (inactive),> 100 µM (inactive),47 µM (inactive),77.4 µM (inactive),> 100 µM (inactive),,,
CC1=NN(c2nc(N)nc(-c3ccccc3S(N)(=O)=O)n2)C(C)(C)C1,22.4 µM (inactive),4.44 µM (inactive),36.1 µM (inactive),13.8 µM (inactive),6.03 µM (inactive),22.6 µM (inactive),6.7 µM (inactive),,20.1 µM (inactive),27.2 µM (inactive),27.9 µM (inactive),,9.51 µM (inactive),8.51 µM (inactive),30.2 µM (inactive),3.92 µM (inactive),22.2 µM (inactive),26.6 µM (inactive),23.8 µM (inactive)
S=C(N/N=C\C=N/NC(=S)N1CCCCC1)N1CCCCC1,1.34 µM (inactive),0.267 µM (active),0.515 µM (active),,,0.664 µM (active),0.208 µM (active),0.321 µM (active),1.16 µM (inactive),0.433 µM (active),0.682 µM (active),0.731 µM (active),1.61 µM (inactive),0.207 µM (active),1.25 µM (inactive),0.195 µM (active),> 96.2 µM (inactive),> 26.1 µM (inactive),0.287 µM (active)
COc1ccc(CN2C(=O)[C@@H]3Cc4c(OC)c(C)c(OC)c(OC)c4[C@H](/C2=C\c2cc(OC)c(OC)c(C)c2OC)N3C(=O)OC(C)C)cc1,27.3 µM (inactive),> 100 µM (inactive),12.2 µM (inactive),22.4 µM (inactive),5.53 µM (inactive),> 100 µM (inactive),28.4 µM (inactive),41.2 µM (inactive),66.4 µM (inactive),8.34 µM (inactive),> 100 µM (inactive),> 100 µM (inactive),78 µM (inactive),> 100 µM (inactive),8.28 µM (inactive),36.5 µM (inactive),,,
COc1ccc2c(c1)CCC1C3(CCCC21C)OCCO3 (stereo unspecified),29.6 µM (inactive),23.3 µM (inactive),16.8 µM (inactive),22.8 µM (inactive),15.9 µM (inactive),28.8 µM (inactive),18.8 µM (inactive),27.9 µM (inactive),15.6 µM (inactive),18.8 µM (inactive),20.2 µM (inactive),19.8 µM (inactive),36.8 µM (inactive),15.9 µM (inactive),20.8 µM (inactive),16.9 µM (inactive),,,
O=C(CC1(O)C(=O)Nc2c(Cl)cc(Cl)cc21)c1ccc(Br)cc1 (stereo unspecified),> 49.2 µM (inactive),15.3 µM (inactive),15.2 µM (inactive),39.5 µM (inactive),4.3 µM (inactive),18.2 µM (inactive),17.6 µM (inactive),> 41.3 µM (inactive),14 µM (inactive),13 µM (inactive),19.7 µM (inactive),17.1 µM (inactive),17.6 µM (inactive),13.4 µM (inactive),29.4 µM (inactive),12.9 µM (inactive),,,
N#C/C(=C1\N=NC(N)=C(c2ccc(Cl)cc2)C1=O)c1ccc(Cl)cc1,> 100 µM (inactive),> 100 µM (inactive),> 100 µM (inactive),> 100 µM (inactive),> 100 µM (inactive),> 100 µM (inactive),> 100 µM (inactive),> 100 µM (inactive),> 100 µM (inactive),> 100 µM (inactive),> 100 µM (inactive),> 100 µM (inactive),> 100 µM (inactive),> 100 µM (inactive),> 100 µM (inactive),> 100 µM (inactive),,,
Nc1ncnc2c1ncn2C1CC(O)C(CO)O1 (stereo unspecified),> 100 µM (inactive),> 100 µM (inactive),> 100 µM (inactive),> 100 µM (inactive),> 100 µM (inactive),> 100 µM (inactive),> 100 µM (inactive),> 100 µM (inactive),> 100 µM (inactive),> 100 µM (inactive),> 100 µM (inactive),> 100 µM (inactive),> 100 µM (inactive),> 100 µM (inactive),> 100 µM (inactive),> 100 µM (inactive),> 100 µM (inactive),> 100 µM (inactive),> 100 µM (inactive)
COC(=O)c1c[nH]c(=O)[nH]c1=O [ISOOROTIC ACID METHYL ESTER],,> 100 µM (inactive),> 100 µM (inactive),> 100 µM (inactive),,> 100 µM (inactive),> 100 µM (inactive),,> 100 µM (inactive),> 100 µM (inactive),> 100 µM (inactive),> 100 µM (inactive),> 100 µM (inactive),,> 100 µM (inactive),> 100 µM (inactive),,> 100 µM (inactive),> 100 µM (inactive)
COc1c(O)c(OC)c(C(=O)/C=C/c2ccccc2)c(O)c1OC [PEDICIN],,23.6 µM (inactive),23.1 µM (inactive),68.1 µM (inactive),58.2 µM (inactive),21.3 µM (inactive),37.6 µM (inactive),22.8 µM (inactive),,34.6 µM (inactive),33.3 µM (inactive),30.3 µM (inactive),36.3 µM (inactive),31.9 µM (inactive),> 100 µM (inactive),,21.3 µM (inactive),20.9 µM (inactive),20.9 µM (inactive)
